One data set has as its system HBV. Put plainly: Inhibition of HBV production in HepG2.2.15 cells. To be noted: 3 μM, treated every 24 hours for 4 days, FIG. 35 lanes 7 and 8. The data set is classed as cell-based. The procedure:
HepG2.2.15 cells were plated on 9 cm dishes and allowed to grow in 8% FCS for 5 days up to 70% confluence. After 5 days, cells were washed twice with PBS and re-supplied with fresh DMEM without FCS. In this medium, cells were treated every 24 hours with the depicted solutions (3 μl solution/11 ml medium) for another 4 days (4 treatments total). After 4 days, medium was collected from each plate, viruses were sedimented and analyzed.
Detection of HBV proteins was performed essentially as described in Paran, N et al (2001) EMBO J 20(16):4443-4453.

In data set [1] the test system is HIV-1. Conditions: H89 50 μM; HeLa SS6 cells transfected with pNLenv-1; VLPs collected twenty minutes after shift from 20° C. to 37° C.
Description: HeLa SS6 cells were transfected with pNLenv-1PTAP or pNLenv-1ATAA (L-domain mutant). Eighteen hours post-transfection, cells were transferred to 20° C. for two hours in order to inhibit transport of viral particles from the trans-Golgi (TGN) to the plasma membrane (PM). Subsequently, the PKA inhibitor, H89 (50 μM) (Biosource, Cat. No. PHZ1114) or DMSO were added to the cells and dishes were transferred to 37° C. to initiate transport from the TGN to the PM. Reverse transcriptase activity was assayed from virus-like-particles collected from cell supernatant twenty minutes later.
The test system of data set [2] is HIV-1. To be noted: Cartier et al., 2003, J Biol Chem., 278:35211-9; cited from earlier work.
For data set [3], the system named is Bacterially expressed recombinant maltose-binding-protein (MBP)-hPOSH [MBP: P0AEX9].

Regarding `O=C1C=CC(=O)N1c1ccc(OC(F)(F)C(F)F)c(N2C(=O)C=CC2=O)c1` [CAS number 14567-55-4], the HBV production entry in the data set on HBV is “inhibit HBV production”.

For `Oc1c(Br)cc(Cl)cc1/C=N/c1ccccc1Br` [CAS number 414908-38-0], the HBV production result in the data set with HBV was “inhibit HBV production”.

`O=S(=O)(NCCNCC=Cc1ccc(Br)cc1)c1cccc2cnccc12` [H89, N-[2-((Pbromocinnamyl)amino)ethyl]isoquinolinesulfonamide]: the “RT activity of virus-like particles collected from cell supernatant” value with HIV-1 [1] is on record as “complete inhibition”. In the data set on HIV-1 [2], the “HIV-1 release from cells” value is listed as “able to block HIV-1 release from cells”.

For PKA catalytic subunit (PKAc), in data set [3], the “in-vitro phosphorylation of MBP-hPOSH by PKA catalytic subunit, immunoblot” value is reported as “POSH is phosphorylated by PKA”.

These data come from patent US20060286630A1, “Posh interacting proteins and related methods” (Proteologics, Inc., priority 2003, published 2006).
